Test results taken from patent US11286247B2, “Acryloyl-containing nuclear transport regulators and uses thereof” (WIGEN BIOMEDICINE TECHNOLOGY (SHANGHAI) CO., LTD., priority 2019, dated 2022).
Values after ≈ are worked out from the molar mass of the structure shown. Where two headings read alike, the source gives them in different places.

Columns and labels:
Aqueous solubility assay = type: physicochemical; conditions: thermodynamic from solid, HPLC
Protocol: 10-30 mg of compounds were dissolved in water and an HCl solution at pH1.2 respectively, and then were continuously shook for three days, followed by centrifugation at 10000 rpm/minute for five minutes. A 2 mL aliquot of supernatant was removed and diluted to 50 mL to prepare a sample solution. A control solution was prepared by dissolving 2.5 mg compounds in methanol, which was subsequently diluted with water to a final volume of 50 mL. 20 μL of control and sample solutions were injected into HPLC. The area under the curve (A) of the sample solution was compared with that of the control solution and used for determination of the concentration. Solubility was calculated by the formula below. Solubility (mg/mL)=c(control)*25*A(sample)/A(control) • C (control): concentration of the control solution • A (sample): area under the curve of the sample solution • A (control): area under the curve of the control solution

[1] = tested on: MDA-MB-231 cells (breast cancer cells); experiment: Cancer cell proliferation assay, MDA-MB-231; type: cell-based; conditions: Homo sapiens
Protocol: (§1) BxPC-3 cells (pancreatic cancer) and MDA-MB-231 cells (breast cancer cells) were harvested from exponential phase cultures and seeded in 96-well plates at a cell density of 2×10^4 per well. After overnight attachment, compounds including positive controls were applied to cells at five concentrations and incubated for three days. During the last four hours of incubation, 20 μL of 5 mg/mL […] was added followed by the further addition of 100 μL DMSO. The plates were subsequently shook for 10 minutes to dissolve insoluble purple formazan. Absorbance (A) at a wavelength of 570 nm was quantified. Percentage of inhibition was used for the calculation of IC50 based on the bliss method.

[2] = tested on: BxPC-3 cells (pancreatic cancer); experiment: Cancer cell proliferation assay, BxPC-3; type: cell-based; conditions: for IC50: Homo sapiens
Protocol: as §1

CRM1 = target: T1, CRM1 (Homo sapiens, UniProt O14980); experiment: Rev-GFP nuclear export assay; type: cell-based; conditions: U2OS cells expressing Rev-GFP, 1 hour incubation, nuclear retention of Rev-GFP
T1 construct: The nuclear localization of Rev protein depends on CRM1; endogenous in cells; host or cells: U2OS cells stably or transiently expressing Rev-GFP (reporter cargo)
T1 sequence (O14980 whole entry): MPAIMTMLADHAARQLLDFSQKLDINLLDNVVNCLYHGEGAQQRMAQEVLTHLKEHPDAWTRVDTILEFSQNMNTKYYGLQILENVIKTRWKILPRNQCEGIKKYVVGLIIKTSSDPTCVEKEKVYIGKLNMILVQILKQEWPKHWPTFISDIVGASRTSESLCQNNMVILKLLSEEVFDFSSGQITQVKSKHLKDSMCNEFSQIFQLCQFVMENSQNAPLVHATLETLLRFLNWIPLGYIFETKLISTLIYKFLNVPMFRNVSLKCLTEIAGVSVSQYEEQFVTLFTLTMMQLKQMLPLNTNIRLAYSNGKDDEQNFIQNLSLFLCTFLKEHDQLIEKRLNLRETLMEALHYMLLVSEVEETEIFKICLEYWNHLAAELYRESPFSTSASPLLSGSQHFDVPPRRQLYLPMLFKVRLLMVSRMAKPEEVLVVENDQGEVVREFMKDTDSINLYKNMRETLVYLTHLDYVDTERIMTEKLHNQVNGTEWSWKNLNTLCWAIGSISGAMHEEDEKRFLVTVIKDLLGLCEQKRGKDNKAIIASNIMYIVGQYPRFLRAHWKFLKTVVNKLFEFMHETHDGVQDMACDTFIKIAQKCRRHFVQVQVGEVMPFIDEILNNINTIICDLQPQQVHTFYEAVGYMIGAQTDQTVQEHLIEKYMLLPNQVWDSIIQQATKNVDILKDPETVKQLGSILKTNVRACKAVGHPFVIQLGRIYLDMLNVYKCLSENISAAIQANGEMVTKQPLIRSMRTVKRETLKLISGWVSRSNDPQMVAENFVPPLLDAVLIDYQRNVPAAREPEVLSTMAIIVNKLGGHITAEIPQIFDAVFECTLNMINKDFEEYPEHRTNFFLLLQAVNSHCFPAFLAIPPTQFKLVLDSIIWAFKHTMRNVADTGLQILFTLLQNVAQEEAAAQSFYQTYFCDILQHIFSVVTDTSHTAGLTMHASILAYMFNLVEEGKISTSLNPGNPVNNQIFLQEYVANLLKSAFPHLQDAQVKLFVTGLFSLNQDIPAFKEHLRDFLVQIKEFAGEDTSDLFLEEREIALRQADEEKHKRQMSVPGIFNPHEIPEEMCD
Protocol: The Rev protein from HIV contains nuclear export sequence (NES) at its C terminus and nuclear localization sequence (NLS) at its N-terminus. The nuclear localization of Rev protein depends on CRM1. U2OS cells expressing Rev protein fused with GFP (Rev-GFP) were plated in black 384 plates with clear bottom one day prior to treatment. Compounds were serially diluted 2-fold from 40 μM with DMEM in 384 plates, and then incubated with U2OS cells for an hour. Cells were fixed with 3.7% formaldehyde afterwards and nuclei were stained with Hoechst33258. The nuclear retention of Rev-GFP was examined, and IC50 was calculated.

[3] = In vivo pharmacokinetic analysis; conditions: ICR, mouse; mice, 5 mg/kg, oral gavage in 0.5% CMC, plasma
Protocol: A group of 9 ICR mice received 5 mg/kg of compound in 0.5% CMC by oral gavage. Blood was taken before treatment and at 5 min, 30 min, 1, 2, 4, 8, 12 and 24 h after treatment. 80 μL of whole blood was sampled (n=3 at each time point) via retro-orbital bleeds or cardiac puncture. The blood sample was collected into EDTA tubes and plasma were obtained by centrifugation at 1500-1600 rpm for 10 min at 4° C. After centrifugation, plasma sample was transferred to a new tube and stored at −60 to −90° C. for future analysis. Plasma concentration of (compounds was quantified by a method based on liquid chromatography coupled to tandem mass-spectrometric detections (LC/MS/MS). Noncompartmental pharmacokinetics parameters were calculated.

BxPC-3 xenografts = experiment: Anti-tumor growth efficacy in pancreatic tumor BxPC3 nude mice xenograft model; type: in vivo; conditions: oral: KPT-330 and 38 10 mg/kg tiw, 79 2.5 mg/kg tiw, 62 10 mg/kg qd; for Tumor volume D1 / average body weight D1: D1, first day of drug treatment; for T/C: TRTV/CRTV X 100
Protocol: BxPC-3 cells were cultured in 1640 medium containing 10% FBS at 37° C. and 5% CO2, 8×10^6 BxPc-3 cells were implanted subcutaneously into the left armpit of 40 nude mice. […] Compound 62 was administered orally everyday (qd) at 10 mg/kg, whereas KPT330 and compound 38 were given three times a week (tiw, Monday, Wednesday and Friday) at 10 mg/kg by oral gavage, and compound 79 were given three times a week (tiw, Monday, Wednesday and Friday) at 2.5 mg/kg by oral gavage. Tumor volume and body weight were measured every other day. Mice were sacrificed on day 21, and tumor and terminal body weight were recorded. The relative tumor volume, percent treatment/control values and tumor growth inhibition were calculated and statistics was performed.

[4] = simulated gastric fluid, HCl solution of pH 1.2, shaken three days, read-out: Solubility, HCl solution of pH 1.2
[5] = water, shaken three days, read-out: Solubility, Water
[6] = MDA-MB-231, 72 h, three days incubation, absorbance 570 nm, read-out: IC50 (μM) MDA-MB-231
[7] = BXPC-3, 72 h, three days incubation, absorbance 570 nm, read-out: IC50 (μM) BxPC-3
[8] = MDA-MB-231, anti-proliferative assay, read-out: IC50 in MDA-MB-231 cells
[9] = BXPC-3, anti-proliferative assay, read-out: IC50 in BxPC-3 cells

| SMILES | solubility at 3 days (Aqueous solubility assay; [4]) [µg/mL] | solubility at 3 days (Aqueous solubility assay; [5]) [µg/mL] | IC50 [1, 6] [µM] | IC50 [2, 7] [µM] | IC50 (CRM1) [nM] | AUC(0-t) [3] [ng·h/mL] | Cmax [3] [ng/mL] | MRT [3] [h] | Tmax [3] [h] | half-life [3] [h] | IC50 [1, 8] [µM] | IC50 [2, 9] [µM] | folds of enhancement of activity in the anti-proliferative assay ([2]; in comparison to KPT330, BxPC-3 and MDA-MB-231 cells) [folds] | Tumor volume D1 (BxPC-3 xenografts) [mm^3] | average body weight D1 (BxPC-3 xenografts) [g] | TGI (tumor growth inhibition) (BxPC-3 xenografts; D21) [%] | Tumor volume D21 (BxPC-3 xenografts; D21) [mm^3] | average body weight D21 (BxPC-3 xenografts; D21) [g] | RTV (relative tumor volume, Vt/V0) (BxPC-3 xenografts; D21, *P < 0.05 vs. vehicle group) | T/C (BxPC-3 xenografts) [%] |
| --- | --- | --- | --- | --- | --- | --- | --- | --- | --- | --- | --- | --- | --- | --- | --- | --- | --- | --- | --- | --- |
| O=C(/C=C\n1cnc(-c2cc(C(F)(F)F)cc(C(F)(F)F)c2)n1)N1CCC(=O)N1CC1CC1 [Compound 72, (Z)-1-(3-(3-(3,5-bis(trifluoromethyl)phenyl)-1H-1,2,4-triazol-1-yl)acryloyl)-2-(cyclopropylmethyl)pyrazolidin-3-one] | 27.4 (≈ 58 µM) | 20.9 (≈ 44.2 µM) | 0.119 | 0.137 | < 1000 |  |  |  |  |  |  |  |  |  |  |  |  |  |  |  |
| CC1=C(C)C(=O)N(NC(=O)/C=C\n2cnc(-c3cc(C(F)(F)F)cc(C(F)(F)F)c3)n2)C1 [Compound 5, (Z)-3-(3-(3,5-bis(trifluoromethyl)phenyl)-1H-1,2,4-triazol-1-yl)-N-(3,4-dimethyl-2-oxo-2,5-dihydro-1H-pyrrol-1-yl)acrylamide] |  |  | 0.955 | 0.202 | < 1000 | 3690 | 674 | 4.34 | 1 | 4.53 |  |  |  |  |  |  |  |  |  |  |
| O=C(/C=C\n1cnc(-c2cc(C(F)(F)F)cc(C(F)(F)F)c2)n1)NN1CCCC1=O [Compound 2, (Z)-3-(3-(3,5-bis(trifluoromethyl)phenyl)-1H-1,2,4-triazol-1-yl)-N-(2-oxopyrrolidin-1-yl)acrylamide] | 14.6 (≈ 33.6 µM) | 11.3 (≈ 26.1 µM) | 0.024 | 0.269 | < 1000 | 2660 | 502 | 6.59 | 0.5 | 4.58 |  |  |  |  |  |  |  |  |  |  |
| O=C(/C=C\n1cnc(-c2cc(C(F)(F)F)cc(C(F)(F)F)c2)n1)N1CCCN1 [Compound 90, (Z)-3-(3-(3,5-bis(trifluoromethyl)phenyl)-1H-1,2,4-triazol-1-yl)-1-(pyrazolidin-1-yl)prop-2-en-1-one] | 349 (≈ 861 µM) | 156 (≈ 386 µM) |  |  |  |  |  |  |  |  |  |  |  |  |  |  |  |  |  |  |
| COC1=CC(=O)N(NC(=O)/C=C\n2cnc(-c3cc(C(F)(F)F)cc(C(F)(F)F)c3)n2)CC1 [Compound 87, (Z)-3-(3-(3,5-bis(trifluoromethyl)phenyl)-1H-1,2,4-triazol-1-yl)-N-(4-methoxy-6-oxo-3,6-dihydropyridin-1(2H)-yl)acrylamide] |  |  | 0.021 | 0.041 | < 1000 | 4080 | 389 | 6.56 | 0.5 | 2.7 | 0.021 | 0.041 | 20 |  |  |  |  |  |  |  |
| COCCN1C(=O)CCN1C(=O)/C=C\n1cnc(-c2cc(C(F)(F)F)cc(C(F)(F)F)c2)n1 [Compound 71, (Z)-1-(3-(3-(3,5-bis(trifluoromethyl)phenyl)-1H-1,2,4-triazol-1-yl)acryloyl)-2-(2-methoxyethyl)pyrazolidin-3-one] | 147 (≈ 307 µM) | 229 (≈ 479 µM) | 0.245 | 0.586 | < 1000 |  |  |  |  |  |  |  |  |  |  |  |  |  |  |  |
| CN1CCC2(CC1)CC(=O)N(NC(=O)/C=C\n1cnc(-c3cc(C(F)(F)F)cc(C(F)(F)F)c3)n1)C2 [Compound 23, (Z)-3-(3-(3,5-bis(trifluoromethyl)phenyl)-1H-1,2,4-triazol-1-yl)-N-(8-methyl-3-oxo-2,8-diazaspiro[4.5]decan-2-yl)acrylamide] | 159 (≈ 307 µM) | 40.3 (≈ 78.1 µM) | 0.407 | 0.664 | < 1000 |  |  |  |  |  |  |  |  |  |  |  |  |  |  |  |
| CN1C(=O)CCN1C(=O)/C=C\n1cnc(-c2cc(C(F)(F)F)cc(C(F)(F)F)c2)n1 [Compound 62, (Z)-1-(3-(3-(3,5-bis(trifluoromethyl)phenyl)-1H-1,2,4-triazol-1-yl)acryloyl)-2-methylpyrazolidin-3-one] | 220 (≈ 508 µM) | 320 (≈ 738 µM) | 0.186 | 0.124 | < 1000 |  |  |  |  |  |  |  |  | 65.32 ± 6.61 | 20.55 | 77.35 | 152.32 ± 24.78 | 21.08 | 2.33* | 35.10 |
| O=C(/C=C\n1cnc(-c2cc(C(F)(F)F)cc(C(F)(F)F)c2)n1)NN1C(=O)[C@@H]2CC[C@H]1C2 [Compound 33, (Z)-3-(3-(3,5-bis(trifluoromethyl)phenyl)-1H-1,2,4-triazol-1-yl)-N-((1S,4R)-3-oxo-2-azabicyclo[2.2.1]heptan-2-yl)acrylamide] |  |  | 0.165 | 0.156 | < 1000 | 5770 | 697 | 6.76 | 1 | 4.36 |  |  |  |  |  |  |  |  |  |  |
| O=C(/C=C\n1cnc(-c2cc(C(F)(F)F)cc(C(F)(F)F)c2)n1)NNc1cnccn1 [KPT-330, Selinexor, reference compound] | 6.52 (≈ 14.7 µM) | 6.25 (≈ 14.1 µM) | 0.458 | 0.705 |  | 2470 | 325 | 6.94 | 0.5 | 2.66 | 0.455 | 0.705 |  | 65.06 ± 6.45 | 19.97 | 77.55 | 151.31 ± 23.90 | 19.97 |  | 35.02 |
